≈ marks a conversion by molar mass, not a printed value. Like-named read-outs stand apart in the source and are kept apart here.
Assays:
Ps. aeruginosa A9843A = assay: M.I.C. by tube dilution; format: cell-based; details: Pseudomonas aeruginosa
[1] = test system: S. aureus methicillin-resistant A15097; assay: M.I.C. by tube dilution; format: cell-based; details: at 10^-^3 dilution, overnight 37° C.; for MIC: Staphylococcus aureus
[2] = Blood levels in the mouse after oral administration; format: in vivo; details: mouse, oral, 100 mgm./kg.; for concentration at 0.5 h / concentration at 1 h / concentration at 2 h / concentration at 3.5 h: blood, 100 mg/kg, read-out: Blood Level; for concentration at 1 h: 1 hr. after administration; for concentration at 2 h: 2 hrs. after administration; for concentration at 3.5 h: 3.5 hrs. after administration
Protocol: Blood levels in the mouse after oral administration were
determined with the following results:

Sal. enteritidis A9531 = assay: M.I.C. by tube dilution; format: cell-based; details: at 10^-^4 dilution, overnight 37° C.; for MIC: Salmonella enterica, ENTERITIDIS
Pr. morganii A15153 = assay: M.I.C. by tube dilution; format: cell-based; details: Morganella morganii
D. pneumoniae A9585 = assay: M.I.C. by tube dilution; format: cell-based; details: Streptococcus pneumoniae, D. pneumoniae + 5% serum, 50% Nutrient Broth - 45% Antibiotic Assay Broth, overnight 37° C.
E. coli Juhl A15119 = assay: M.I.C. by tube dilution; format: cell-based; details: Escherichia coli, JUHLA15119
S. aureus Smith A9537 = assay: M.I.C. by tube dilution; format: cell-based; details: Staphylococcus aureus, overnight 37° C.
S. aureus A9748 = assay: M.I.C. by tube dilution; format: cell-based; details: overnight 37° C.; for MIC: Staphylococcus aureus
Str. pyogenes A9604 = assay: M.I.C. by tube dilution; format: cell-based; details: Streptococcus pyogenes, Str. pyogenes + 5% serum, 50% Nutrient Broth - 45% Antibiotic Assay Broth, overnight 37° C.
[3] = test system: S. aureus BX 1633-2 A9606; assay: M.I.C. by tube dilution; format: cell-based; details: overnight 37° C.; for MIC: Staphylococcus aureus
E. coli A9675 = assay: M.I.C. by tube dilution; format: cell-based; details: at 10^-^4 dilution, overnight 37° C.; for MIC: Escherichia coli, A9675
Ser. marcescens A20019 = assay: M.I.C. by tube dilution; format: cell-based; details: Serratia marcescens
K. pneumoniae A15130 = assay: M.I.C. by tube dilution; format: cell-based; details: at 10^-^4 dilution, overnight 37° C.; for MIC: Klebsiella pneumoniae, A15130
K. pneumoniae A9977 = assay: M.I.C. by tube dilution; format: cell-based; details: at 10^-^4 dilution, overnight 37° C.; for MIC: Klebsiella pneumoniae, A9977
Pr. mirabilis A9900 = assay: M.I.C. by tube dilution; format: cell-based; details: at 10^-^4 dilution, overnight 37° C.; for MIC: Proteus mirabilis, A9900
[4] = at 10^-^4 dilution, overnight 37° C., read-out: M.I.C.
[5] = SMITHA9537, + 50% serum, at 10^-^4 dilution, read-out: M.I.C.
[6] = SMITHA9537, at 10^-^4 dilution, read-out: M.I.C.
[7] = A9748, at 10^-^2 dilution, read-out: M.I.C.
[8] = A9748, at 10^-^3 dilution, read-out: M.I.C.
[9] = BX16332A9606, at 10^-^2 dilution, read-out: M.I.C.
[10] = BX16332A9606, at 10^-^3 dilution, read-out: M.I.C.

N[C@@H](C(=O)NC1C(=O)N2C(C(=O)O)=C(CSC(=O)c3cncs3)CS[C@H]12)c1ccccc1 (stereo partly drawn) [Compound 602, 7-[D-(-)-α-aminophenylacetamido]-3-(thiazol-5-yl)carbonylthiomethyl-3-cephem-4-carboxylic acid]
MIC (Ps. aeruginosa A9843A): > 125 µg/mL
MIC [1]: 4 µg/mL (≈ 8.15 µM)
concentration at 0.5 h ([2]; 0.5 hrs. after administration): 11700 ng/mL
concentration at 1 h [2]: 17600 ng/mL
concentration at 2 h [2]: 9700 ng/mL
concentration at 3.5 h [2]: 3300 ng/mL
MIC (Sal. enteritidis A9531; read-out: M.I.C.): 0.3 µg/mL (≈ 0.612 µM)
MIC (Pr. morganii A15153): 125 µg/mL (≈ 255 µM)
MIC (D. pneumoniae A9585): 0.6 µg/mL
MIC (E. coli Juhl A15119; [4]): 4 µg/mL (≈ 8.15 µM)
MIC (S. aureus Smith A9537; [5]): > 63 µg/mL
MIC (S. aureus Smith A9537; [6]): 0.3 µg/mL (≈ 0.612 µM)
MIC (S. aureus A9748; [7]): 63 µg/mL (≈ 128 µM)
MIC (S. aureus A9748; [8]): 8 µg/mL (≈ 16.3 µM)
MIC (Str. pyogenes A9604): 0.6 µg/mL
MIC [3, 9]: 16 µg/mL (≈ 32.6 µM)
MIC [3, 10]: 1.3 µg/mL (≈ 2.65 µM)
MIC (E. coli A9675; read-out: M.I.C.): 16 µg/mL (≈ 32.6 µM)
MIC (Ser. marcescens A20019): > 125 µg/mL
MIC (K. pneumoniae A15130; read-out: M.I.C.): 32 µg/mL (≈ 65.2 µM)
MIC (K. pneumoniae A9977; read-out: M.I.C.): 16 µg/mL (≈ 32.6 µM)
MIC (Pr. mirabilis A9900; read-out: M.I.C.): 16 µg/mL (≈ 32.6 µM)

Cc1nc(C(=O)SCC2=C(C(=O)O)N3C(=O)C(NC(=O)[C@H](N)c4ccccc4)[C@H]3SC2)cs1 (stereo partly drawn) [Compound 607, 7-[D-α-aminophenylacetamido]-3-(2-methylthiazol-4-yl)carbonylthiomethyl-3-cephem-4-carboxylic acid]
MIC (Ps. aeruginosa A9843A): > 125 µg/mL
MIC [1]: 8 µg/mL (≈ 15.9 µM)
concentration at 0.5 h ([2]; 0.5 hrs. after administration): 1200 ng/mL
concentration at 1 h [2]: 1400 ng/mL
concentration at 2 h [2]: 1300 ng/mL
concentration at 3.5 h [2]: 1000 ng/mL
Blood Level ([2]; 0.5 hrs. after administration): 1.2 µg/mL
MIC (Sal. enteritidis A9531; read-out: M.I.C.): 0.6 µg/mL (≈ 1.19 µM)
MIC (Pr. morganii A15153; [4]): 32 µg/mL (≈ 63.4 µM)
MIC (D. pneumoniae A9585): 0.16 µg/mL
MIC (E. coli Juhl A15119; [4]): 8 µg/mL (≈ 15.9 µM)
MIC (S. aureus Smith A9537; [5]): 63 µg/mL
MIC (S. aureus Smith A9537; [6]): 0.3 µg/mL (≈ 0.595 µM)
MIC (S. aureus A9748; [7]): 16 µg/mL (≈ 31.7 µM)
MIC (S. aureus A9748; [8]): 8 µg/mL (≈ 15.9 µM)
MIC (Str. pyogenes A9604): 0.16 µg/mL
MIC [3, 9]: 4 µg/mL (≈ 7.93 µM)
MIC [3, 10]: 0.6 µg/mL (≈ 1.19 µM)
MIC (E. coli A9675; read-out: M.I.C.): 16 µg/mL (≈ 31.7 µM)
MIC (Ser. marcescens A20019): > 125 µg/mL
MIC (K. pneumoniae A15130): 125 µg/mL (≈ 248 µM)
MIC (K. pneumoniae A9977; read-out: M.I.C.): 16 µg/mL (≈ 31.7 µM)
MIC (Pr. mirabilis A9900; read-out: M.I.C.): 8 µg/mL (≈ 15.9 µM)

Cc1nc(C(=O)SCC2=C(C(=O)O)N3C(=O)C(NC(=O)[C@H](N)c4ccccc4)[C@H]3SC2)sc1C (stereo partly drawn) [Compound 587, 7-[D-α-aminophenylacetamido]-3-(4,5-dimethylthiazol-2-yl)carbonylthiomethyl-3-cephem-4-carboxylic acid]
MIC (Ps. aeruginosa A9843A): > 125 µg/mL
MIC [1]: 4 µg/mL (≈ 7.71 µM)
concentration at 0.5 h ([2]; 0.5 hrs. after administration): 6300 ng/mL
concentration at 1 h [2]: 8900 ng/mL
concentration at 2 h [2]: 4300 ng/mL
concentration at 3.5 h [2]: 2000 ng/mL
MIC (Sal. enteritidis A9531; read-out: M.I.C.): 2.5 µg/mL (≈ 4.82 µM)
MIC (Pr. morganii A15153): > 125 µg/mL
MIC (D. pneumoniae A9585): 2.5 µg/mL
MIC (E. coli Juhl A15119; [4]): 16 µg/mL (≈ 30.8 µM)
MIC (S. aureus Smith A9537; [5]): > 63 µg/mL
MIC (S. aureus Smith A9537; [6]): 0.3 µg/mL (≈ 0.578 µM)
MIC (S. aureus A9748; [7]): 16 µg/mL (≈ 30.8 µM)
MIC (S. aureus A9748; [8]): 4 µg/mL (≈ 7.71 µM)
MIC (Str. pyogenes A9604): 2.5 µg/mL
MIC [3, 9]: 1 µg/mL (≈ 1.93 µM)
MIC [3, 10]: 0.6 µg/mL (≈ 1.16 µM)
MIC (E. coli A9675; read-out: M.I.C.): 32 µg/mL (≈ 61.7 µM)
MIC (Ser. marcescens A20019): > 125 µg/mL
MIC (K. pneumoniae A15130): > 125 µg/mL
MIC (K. pneumoniae A9977; read-out: M.I.C.): 32 µg/mL (≈ 61.7 µM)
MIC (Pr. mirabilis A9900): > 125 µg/mL

CC1=C(C(=O)O)N2C(=O)[C@@H](NC(=O)[C@H](N)c3ccccc3)[C@H]2SC1 [cephalexin, reference compound]
MIC (Ps. aeruginosa A9843A): > 125 µg/mL
MIC [1]: 32 µg/mL (≈ 92.1 µM)
M.I.C. [1]: 63 µg/mL
MIC (Sal. enteritidis A9531): 4 µg/mL (≈ 11.5 µM)
M.I.C. (Sal. enteritidis A9531): 2 µg/mL
MIC (Pr. morganii A15153): > 125 µg/mL
MIC (E. coli Juhl A15119): 8 µg/mL (≈ 23 µM)
MIC (S. aureus Smith A9537; SMITHA9537, + 50% serum, at 10^-^4 dilution): 2.5 µg/mL
MIC (S. aureus A9748; A9748, at 10^-^2 dilution): 125 µg/mL (≈ 360 µM)
MIC (S. aureus A9748; A9748, at 10^-^3 dilution): 32 µg/mL (≈ 92.1 µM)
M.I.C. (S. aureus A9748; at 10^-^2 dilution): 63 µg/mL
M.I.C. (S. aureus A9748; at 10^-^3 dilution): 63 µg/mL
MIC ([3]; BX16332A9606, at 10^-^2 dilution): 8 µg/mL (≈ 23 µM)
MIC ([3]; BX16332A9606, at 10^-^3 dilution): 4 µg/mL (≈ 11.5 µM)
M.I.C. ([3]; at 10^-^2 dilution): 4 µg/mL
M.I.C. ([3]; at 10^-^3 dilution): 2 µg/mL
MIC (E. coli A9675): 16 µg/mL (≈ 46.1 µM)
M.I.C. (E. coli A9675): 32 µg/mL
MIC (Ser. marcescens A20019): > 125 µg/mL
MIC (K. pneumoniae A15130): 16 µg/mL (≈ 46.1 µM)
M.I.C. (K. pneumoniae A15130): 32 µg/mL
MIC (K. pneumoniae A9977): 8 µg/mL (≈ 23 µM)
M.I.C. (K. pneumoniae A9977): 4 µg/mL
MIC (Pr. mirabilis A9900): 4 µg/mL (≈ 11.5 µM)
M.I.C. (Pr. mirabilis A9900): 8 µg/mL
